From US20040166509A1, “Detecting hormonally active compounds” (priority 2002, published 2004)

Key:
[1] = tested on: liver cDNAs of adult male LMB; experiment: LMB gene arrays of SSH-derived cDNAs: liver of fish treated with androgens; assay type: in vivo, largemouth bass (LMB); details: DHT 62.5 μg/g, 11-KT 20 μg/g vs DMSO
Procedure: For each cDNA clone, the general background of each membrane was subtracted from the average value of the duplicate spots on the membrane. The values were then normalized to the average value of seven cDNA clones specific to ribosomal genes and the fold change calculated by dividing the mean of each treatment by the mean of the control. Those genes which changed by 2-fold or more were graphed. Significant differences (p<0.05) were determined by ANOVA and secondary testing was done by using […].

hepatic RNA of LMB = experiment: LMB gene array (132 genes): hepatic gene expression after IP injection; assay type: in vivo, largemouth bass (LMB); details: two-fold cutoff vs control; for LMB83 vitellogenin-2 (Vtg 2) expression / LMB87 vitellogenin-1 (Vtg 1) expression / LMB97 choriogenin-3 expression / LMB108-1 choriogenin-2 expression / LMB47-2 (clone 47-2) expression: male LMB liver; for LMB83 vitellogenin-2 (Vtg 2) expression / LMB87 vitellogenin-1 (Vtg 1) expression / LMB97 choriogenin-3 expression / LMB108-1 choriogenin-2 expression: 48 h after single IP dose: E2 2.5 mg/kg, 4-NP 50 mg/kg or p,p′-DDE 100 mg/kg
[2] = female LMB liver, 48 h after single IP p,p′-DDE 100 mg/kg
[3] = female LMB liver, 48 h after single IP p,p′-DDE 100 mg/kg, listed as p, p′-DDE

C[C@]12CCC(=O)C[C@@H]1CC[C@@H]1[C@@H]2CC[C@]2(C)[C@@H](O)CC[C@@H]12 [DHT, dihydrotestosterone]
24-1 (LOC L1) change [1]: down
53-1 (LOC B2) change [1]: down
68-1 (LOC C2) change [1]: down
97-8 (LOC F2) change [1]: up (Those genes which changed by 2-fold or more were graphed)
ALDOLASE B (LOC K2) change [1]: down
ALPHA 1 ANTI-TRYPSIN (LOC L2) change [1]: down
ALPHA TUBULIN (LOC M2) change [1]: down
APOL[…] (LOC C3) change [1]: down
ATP SYNTHASE (LOC K7) change [1]: up (Those genes which changed by 2-fold or more were graphed)
ATPASE 6 (LOC E3) change [1]: up (Those genes which changed by 2-fold or more were graphed)
ATPASE SUBUNIT 6 (LOC F9) change [1]: up (Those genes which changed by 2-fold or more were graphed)
COMPLEMENT C3 (LOC L3) change [1]: down
CYSTATIN (LOC O3) change [1]: down
ER GAMMA 5′ 2F (LOC L14) change [1]: down
EST DHT64 (LOC D4) change [1]: up (Those genes which changed by 2-fold or more were graphed)
EST P4_06 (LOC L8) change [1]: up (Those genes which changed by 2-fold or more were graphed)
EST P4_D08 (LOC N8) change [1]: up (Those genes which changed by 2-fold or more were graphed)
EST SEASONAL 9 (LOC D13) change [1]: up (Those genes which changed by 2-fold or more were graphed)
EST SEASONAL 11 (LOC O6) change [1]: down
EST SEASONAL 12 (LOC B8) change [1]: up (Those genes which changed by 2-fold or more were graphed)
EST SEASONAL 42 (LOC H10) change [1]: down
EST SEASONAL 51 (LOC K11) change [1]: down
EST SEASONAL 55 (LOC M4) change [1]: down
EST SEASONAL 56 (LOC F12) change [1]: up (Those genes which changed by 2-fold or more were graphed)
EST SEASONAL 62 (LOC B14) change [1]: up (Those genes which changed by 2-fold or more were graphed)
EST SEASONAL 64 (LOC H7) change [1]: up (Those genes which changed by 2-fold or more were graphed)
EST SEASONAL 72 (LOC K12) change [1]: down
EST SEASONAL 88 (LOC E12) change [1]: up (Those genes which changed by 2-fold or more were graphed)
EST SEASONAL 90 (LOC L9) change [1]: down
EST SEASONAL F17 (LOC B9) change [1]: down
EST SEASONAL F21 (LOC O13) change [1]: down
ESTDHT60 (LOC F5) change [1]: down
ESTP4_C04 (LOC G9) change [1]: down
ESTP4_E01 (LOC K5) change [1]: down
ESTP4_E06 (LOC D6) change [1]: down
ESTP4_H07 (LOC K13) change [1]: up (Those genes which changed by 2-fold or more were graphed)
GP3 11C (LOC K1) change [1]: down
G[…] (LOC G5) change [1]: down-regulated and down
HAPTOGLOBIN (LOC I5) change [1]: down
HEPCIDIN (LOC J5) change [1]: down
IGF-I (LOC M5) change [1]: down
LDL RC (LOC J10) change [1]: down
LMB24-1 (Unknown) differentially expressed by androgens [1]: dn-reg DHT;
LMB53-1 (unknown) differentially expressed by androgens [1]: Down-reg. E2;
LMB68-1 (hypothetical protein) differentially expressed by [1]: Dn-reg DHT
LMB97 choriogenin-3 differentially expressed by androgens [1]: Up-reg E2;
LMB112-1 cathepsin (Aspartic protease) differentially expressed by androgens [1]: up-reg E; NP:
LMB151 vitellogenin receptor differentially expressed by [1]: Dn-reg
LMB CIS-RETIN DEHYDRO (cis-retinol dehydrogenase) differentially expressed by [1]: up-reg DHT
LMB EST--SEASONAL_64 differentially expressed by [1]: up-reg DHT;
LMB EST--SEASONAL_72 differentially expressed by [1]: Dn-reg DHT;
LMB EST--SEASONAL_88 differentially expressed by [1]: up-reg DHT;
LMB EST--SEASONAL_90 differentially expressed by [1]: dn-reg DHT
LMB EST--SEASONAL_F21 differentially expressed by [1]: Dn-reg DHT
LMB EST-SEASONAL_55 differentially expressed by [1]: Dn-reg 11-KT;
LMB EST-SEASONAL_56 differentially expressed by [1]: up-reg DHT;
LMB GLUT-PEROX III (Glutathione peroxidase III) differentially expressed by [1]: Dn-reg DHT
LMB LIV-REGER-PROT differentially expressed by [1]: down by DHT
LMB RIKEN 1110001M01 differentially expressed by [1]: up by 11KT;
LMB_ALPHA-TUBULIN (alpha tubulin) differentially expressed by [1]: Dn-reg 11-kt;
LMB_ATPASE 6 (ATPase subunit 6) differentially expressed by [1]: up-reg DHT
LMB_COMPLEMENT-C3 (Complement C3 precursor) differentially expressed by [1]: Dn-reg DHT;
LMB_EST-SEASONAL_09 differentially expressed by [1]: up-reg DHT;
LMB_EST-SEASONAL_12 differentially expressed by [1]: up-reg DHT
LMB_EST-SEASONAL_51 differentially expressed by [1]: dn 11-KT;
LMB_ESTDHT_62 differentially expressed by [1]: up-reg DHT;
LMB_ESTP4-E01 differentially expressed by [1]: down by DHT
LMB_HAPTOGLOBIN (Haptoglobin) differentially expressed by [1]: Dn-reg DHT
LMB_HEPCIDIN (Hepcidin precursor) differentially expressed by [1]: dn-reg DHT
LMB_LDL RC (LDL receptor) differentially expressed by [1]: Dn-reg DHT;
LMB_LECTIN STL2 (Rhamnose binding lectin STL2) differentially expressed by [1]: up-reg DHT
LMB_MITOCHON-ATP-SYNTHASE (ATP synthase alpha chain mitochondrial precursor) differentially expressed by [1]: up-reg DHT
LMB_RXR INTERACT PROT (Retinoid X receptor interacting protein) differentially expressed by [1]: Dn-reg 11-KT;
LMB_SOL-CAR-25A#5 (solute carrier family 25 alpha member 5) differentially expressed by [1]: up-reg DHT;
LMB_SSAT (SSAT) differentially expressed by [1]: up-reg DHT;
LMB_ZPC1 (ZPC1) differentially expressed by [1]: up-reg DHT;
LMB_ZPC4 (ZPC4) differentially expressed by [1]: up-reg DHT;
PTTP (LOC O10) change [1]: up (Those genes which changed by 2-fold or more were graphed)
RETINOL DEHYDROGENASE (LOC M11) change [1]: up (Those genes which changed by 2-fold or more were graphed)
RHAMNOSE BINDING LECTIN (LOC G13) change [1]: up (Those genes which changed by 2-fold or more were graphed)
RIKEN 1110001M01 (LOC O11) change [1]: up (Those genes which changed by 2-fold or more were graphed)
RIKEN 2700038C09 (LOC D12) change [1]: down
RXR I[…] (LOC L11) change [1]: down
SOLUTE CARRIER (LOC B13) change [1]: up (Those genes which changed by 2-fold or more were graphed)
SSAT (LOC C13) change [1]: up (Those genes which changed by 2-fold or more were graphed)
TFIID (change to liver regeration related protein) (LOC M12) change [1]: down
TFIIIA (LOC J13) change [1]: up (Those genes which changed by 2-fold or more were graphed)
UNNAMED PROTEIN (LOC C14) change [1]: up (Those genes which changed by 2-fold or more were graphed)
VTG PRECURSOR (LOC D14) change [1]: up (Those genes which changed by 2-fold or more were graphed)
VTG RC (LOC M14) change [1]: down
ZPC1 (LOC H14) change [1]: up (Those genes which changed by 2-fold or more were graphed)
ZPC4 (LOC I14) change [1]: up (Those genes which changed by 2-fold or more were graphed)
warm water acclim (LOC E14) change [1]: up (Those genes which changed by 2-fold or more were graphed)

ClC(Cl)=C(c1ccc(Cl)cc1)c1ccc(Cl)cc1 [p,p′-DDE]
LMB5 vitellogenin-2A expression, female (hepatic RNA of LMB; [2]): NP; Dn-reg
LMB50-1 (clone 50-1) expression, female (hepatic RNA of LMB; [2]): Down reg NP;
LMB53-1 (clone 53-1) expression, female (hepatic RNA of LMB; [2]): Down-reg. E2;
LMB71-1 (clone 71-1) expression, female (hepatic RNA of LMB; [2]): down-reg
LMB83 vitellogenin-2 expression, female (hepatic RNA of LMB; [2]): dn-reg DDE(F)
LMB87 vitellogenin-1 expression, female (hepatic RNA of LMB; [2]): dn-reg DDE(F)
LMB94-1 transferrin expression, female (hepatic RNA of LMB; [2]): Down-reg.
LMB101-1 (clone 101-1) expression, female (hepatic RNA of LMB; [2]): Dn
LMB102-1 chemotaxin expression, female (hepatic RNA of LMB; [2]): down-reg
LMB107-1 (clone 107-1) expression, female (hepatic RNA of LMB; [2]): down-reg
LMB108-1 choriogenin-2 expression, female (hepatic RNA of LMB; [2]): DDE(M); Dn-
LMB112-1 cathepsin (Aspartic protease) expression, female (hepatic RNA of LMB; [2]): DHT; Dn-DDE (F)
LMB118-1 apolipoprotein precursor (clone 118-1) expression, female (hepatic RNA of LMB; [2]): down-reg
LMB120-1 hypothetical protein (clone 120-1) expression, female (hepatic RNA of LMB; [2]): donw-reg
LMB128-1 (clone 128-1) expression, female (hepatic RNA of LMB; [2]): down-reg
LMB141 vitellogenin-3 expression, female (hepatic RNA of LMB; [2]): dn DDE (F)
LMB150 androgen receptor expression, female (hepatic RNA of LMB; [2]): Dn-reg DDE(F)
four Vtg's expression, female (hepatic RNA of LMB; [2]): down-regulated
genes up-regulated in female fish (hepatic RNA of LMB; [2]): no genes were identified as up-regulated
LMB50-1 (clone 50-1) expression, female (hepatic RNA of LMB; [3]): down-regulated
LMB53-1 (clone 53-1) expression, female (hepatic RNA of LMB; [3]): down-regulated
LMB71-1 (clone 71-1) expression, female (hepatic RNA of LMB; [3]): down-regulated
LMB94-1 transferrin expression, female (hepatic RNA of LMB; [3]): down-regulated
LMB101-1 (clone 101-1) expression, female (hepatic RNA of LMB; [3]): down-regulated
LMB102-1 chemotaxin expression, female (hepatic RNA of LMB; [3]): down-regulated
LMB107-1 (clone 107-1) expression, female (hepatic RNA of LMB; [3]): down-regulated
LMB108-1 choriogenin-2 expression, female (hepatic RNA of LMB; [3]): down-regulated
LMB112-1 cathepsin (Aspartic protease) expression, female (hepatic RNA of LMB; [3]): down-regulated
LMB118-1 apolipoprotein precursor (clone 118-1) expression, female (hepatic RNA of LMB; [3]): down-regulated
LMB120-1 hypothetical protein (clone 120-1) expression, female (hepatic RNA of LMB; [3]): down-regulated
LMB128-1 (clone 128-1) expression, female (hepatic RNA of LMB; [3]): down-regulated
LMB150 androgen receptor expression, female (hepatic RNA of LMB; [3]): down-regulated
LMB83 vitellogenin-2 (Vtg 2) expression (hepatic RNA of LMB): up-reg E2;
LMB87 vitellogenin-1 (Vtg 1) expression (hepatic RNA of LMB): up-reg E2;
LMB97 choriogenin-3 expression (hepatic RNA of LMB): Up-reg E2;
LMB108-1 choriogenin-2 expression (hepatic RNA of LMB): Up-reg E2; NP;
LMB83 vitellogenin-2 (Vtg 2) expression (hepatic RNA of LMB; listed as p, p′-DDE): up-regulated
LMB87 vitellogenin-1 (Vtg 1) expression (hepatic RNA of LMB; listed as p, p′-DDE): up-regulated
LMB97 choriogenin-3 expression (hepatic RNA of LMB; listed as p, p′-DDE): up-regulated
LMB108-1 choriogenin-2 expression (hepatic RNA of LMB; listed as p, p′-DDE): up-regulated
LMB47-2 (clone 47-2) expression (hepatic RNA of LMB; 48 h after single IP p,p′-DDE 100 mg/kg): Down-reg
LMB47-2 (clone 47-2) expression (hepatic RNA of LMB; 48 h after single IP p,p′-DDE 100 mg/kg, listed as p, p′-DDE): down-regulated
